{"source": "patent US9676734B2", "about": "“Compounds and methods” (VIRONOVA INFLUENZA AB, priority 2012, dated 2017)", "test_system": "Caco2", "assay": "Caco2 permeability assay", "format": "in vitro ADME", "conditions": "relative to Nucleozin", "protocol": "A Caco2 permeability assay was performed using the inventive compound VNFC 0009 as well as Nucleozin.", "data": [{"smiles": "Cc1onc(-c2ccccc2)c1C(=S)N1CCN(c2ccc([N+](=O)[O-])cc2Cl)CC1", "note": "[VNFC 0009, (4-(2-chloro-4-nitrophenyl)piperazin-1-yl)(5-methyl-3-phenylisoxazol-4-yl)methanethione]", "values": [{"measurement": "Caco2 permeability in the apical to basal direction, higher than that of Nucleozin", "setting": "apical to basal", "result": "about 30%"}, {"measurement": "basal to apical Caco2 permeability, times lower than that of Nucleozin", "setting": "basal to apical", "result": "~7", "unit": "times"}]}]}
